Measurements published in the supplement of paper PMC10307832.

Legend:
Assay in all cases: relative viability (nuclei count vs DMSO), 5 days (fraction); higher = more cells survive
Entinostat + AZD7762 = compound: Nc1ccccc1NC(=O)c1ccc(CNC(=O)OCc2cccnc2)cc1 [Entinostat] + NC(=O)Nc1cc(-c2cccc(F)c2)sc1C(=O)N[C@H]1CCCNC1 [AZD7762] (partner 0.2 µM)
Method in brief: (§1)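 Cells from lung cancer lines were seeded into 1536-well plates and, one day later, dosed by pin tool. Treatments were either a single drug or a fixed dose of an anchor drug with five library-drug doses (not always all listed) in √10 steps. After 5 days, nuclei were stained in a one-step fixation (final 0.05% Triton X-100, 1% formaldehyde, 1 ug/ml Hoechst) and counted on 4× images, and relative viability is the treated-to-vehicle nuclei ratio, as the median of duplicate plates.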

[1] = compound: C1COCCN1C2=NC(=NC3=C2OC4=C3C=CC=N4)C5=CC(=CC=C5)NC(=O)C6=CN=C(C=C6)N + Cc1nc(NC(=O)N2CCC[C@H]2C(N)=O)sc1-c1ccnc(C(C)(C)C(F)(F)F)c1 [Alpelisib] (partner 2 µM)
Method in brief: as §1

SGI-1776 + Tozasertib = compound: CN1CCC(CNc2ccc3ncc(-c4cccc(OC(F)(F)F)c4)n3n2)CC1 [SGI-1776] + Cc1cc(Nc2cc(N3CCN(C)CC3)nc(Sc3ccc(NC(=O)C4CC4)cc3)n2)n[nH]1 [Tozasertib] (partner 0.1 µM)
Method in brief: as §1

Entinostat + Navitoclax = compound: Nc1ccccc1NC(=O)c1ccc(CNC(=O)OCc2cccnc2)cc1 [Entinostat] + CC1(C)CCC(c2ccc(Cl)cc2)=C(CN2CCN(c3ccc(C(=O)NS(=O)(=O)c4ccc(N[C@H](CCN5CCOCC5)CSc5ccccc5)c(S(=O)(=O)C(F)(F)F)c4)cc3)CC2)C1 [Navitoclax] (partner 0.5 µM)
Method in brief: as §1

Row | Cell Line | relative viability (Entinostat + AZD7762; first compound 0.02 µM) | relative viability (Entinostat + AZD7762; first compound 0.06325 µM) | relative viability (Entinostat + AZD7762; first compound 0.2 µM) | relative viability (Entinostat + AZD7762; first compound 0.6325 µM) | relative viability (Entinostat + AZD7762; first compound 2 µM) | relative viability ([1]; first compound 0.02 µM) | relative viability ([1]; first compound 0.06325 µM) | relative viability ([1]; first compound 0.2 µM) | relative viability ([1]; first compound 0.6325 µM) | relative viability ([1]; first compound 2 µM) | relative viability (SGI-1776 + Tozasertib; first compound 0.08 µM) | relative viability (SGI-1776 + Tozasertib; first compound 0.8 µM) | relative viability (SGI-1776 + Tozasertib; first compound 2.53 µM) | relative viability (SGI-1776 + Tozasertib; first compound 8 µM) | relative viability (Entinostat + Navitoclax; first compound 0.02 µM) | relative viability (Entinostat + Navitoclax; first compound 0.06325 µM) | relative viability (Entinostat + Navitoclax; first compound 0.2 µM) | relative viability (Entinostat + Navitoclax; first compound 0.6325 µM) | relative viability (Entinostat + Navitoclax; first compound 2 µM)
1 | NCI-H838 | 0.993 | 0.973 | 0.814 | 0.917 | 0.712 | 1.12 | 0.945 | 0.923 | 0.968 | 0.524 | 0.262 | 0.265 | 0.195 | 0.213 | 1.21 | 1.27 | 1.17 | 0.694 | 0.296
2 | HARA | 0.37 | 0.229 | 0.34 | 0.215 | 0.244 | 0.927 | 0.946 | 0.922 | 0.743 | 0.436 | 0.18 | 0.101 | 0.0992 | 0.0856 | 1.18 | 1.14 | 1.12 | 1.09 | 0.935
3 | NCI-H23 | 0.377 | 0.294 | 0.251 | 0.137 | 0.121 | 0.661 | 0.822 | 0.66 | 0.772 | 0.491 | 0.367 | 0.295 | 0.282 | 0.205 | 0.727 | 0.88 | 0.873 | 0.668 | 0.433
4 | LOU-NH91 | 0.729 | 0.807 | 0.735 | 0.664 | 0.653 | 0.696 | 0.728 | 0.768 | 0.749 | 0.667 | 0.711 | 0.594 | 0.459 | 0.341 | 0.72 | 0.721 | 0.625 | 0.428 | 0.315
5 | EKVX | 0.763 | 0.645 | 0.645 | 0.416 | 0.265 | 0.838 | 0.787 | 0.94 | 0.867 | 0.572 | 0.4 | 0.398 | 0.307 | 0.235 | 0.896 | 0.835 | 0.899 | 0.643 | 0.457
6 | HCC-827 | 0.247 | 0.244 | 0.159 | 0.203 | 0.159 | 0.984 | 0.92 | 0.958 | 0.961 | 0.815 | 0.448 | 0.369 | 0.422 | 0.359 | 1.03 | 0.93 | 0.812 | 0.595 | 0.386
7 | CAL-12T | 0.775 | 0.578 | 0.67 | 0.642 | 0.464 | 1.26 | 1.29 | 1.26 | 1.15 | 0.537 | 0.3 | 0.216 | 0.234 | 0.205 | 1.22 | 1.17 | 1.41 | 1.22 | 1.08
8 | LC-2-ad | 0.884 | 0.853 | 0.759 | 0.497 | 0.257 | 0.824 | 0.83 | 0.893 | 0.782 | 0.531 | 0.451 | 0.309 | 0.336 | 0.261 | 0.387 | 0.289 | 0.264 | 0.17 | 0.134
9 | EPLC-272H | 0.339 | 0.224 | 0.141 | 0.137 | 0.14 | 0.972 | 0.883 | 0.974 | 0.967 | 0.673 | 0.326 | 0.194 | 0.194 | 0.175 | 1.12 | 0.956 | 0.979 | 0.424 | 0.365
10 | A-427 | 0.703 | 0.775 | 0.731 | 0.584 | 0.428 | 1.13 | 1.11 | 1.04 | 0.907 | 0.798 | 0.19 | 0.212 | 0.141 | 0.158 | 1.05 | 1.01 | 0.958 | 0.715 | 0.669
11 | NCI-H650 | 1.12 | 0.95 | 1.08 | 0.823 | 0.325 | 1.07 | 1.12 | 1.06 | 1.04 | 0.824 | 0.823 | 0.688 | 0.373 | 0.185 |  |  |  |  | 
12 | NCI-H1993 | 0.777 | 0.741 | 0.69 | 0.468 | 0.366 | 0.651 | 0.624 | 0.691 | 0.697 | 0.595 | 0.568 | 0.607 | 0.57 | 0.571 | 0.869 | 0.857 | 0.789 | 0.841 | 0.73
13 | NCI-H358 | 0.55 | 0.69 | 0.6 | 0.408 | 0.192 | 0.928 | 0.925 | 0.783 | 0.943 | 0.486 | 0.0986 | 0.0957 | 0.102 | 0.0836 |  |  |  |  | 
14 | RERF-LC-KJ | 1.12 | 1.07 | 0.748 | 0.707 | 0.329 | 0.809 | 0.946 | 0.828 | 0.861 | 0.616 | 0.473 | 0.412 | 0.235 | 0.225 | 0.679 | 0.905 | 1.13 | 0.414 | 0.314
15 | NCI-H1915 | 0.713 | 0.694 | 0.716 | 0.526 | 0.286 | 1.01 | 1.17 | 1.08 | 1.05 | 0.971 | 0.456 | 0.418 | 0.33 | 0.198 | 0.809 | 0.716 | 0.813 | 0.613 | 0.283
16 | NCI-H647 | 0.49 | 0.557 | 0.55 | 0.186 | 0.0556 | 1.21 | 1.33 | 0.996 | 1.21 | 0.356 | 0.389 | 0.198 | 0.175 | 0.175 | 0.96 | 0.995 | 0.928 | 0.374 | 0.0716
17 | NCI-H441 | 1.05 | 0.883 | 0.715 | 0.281 | 0.196 | 0.832 | 0.93 | 0.751 | 0.715 | 0.433 | 0.604 | 0.437 | 0.216 | 0.297 | 0.689 | 0.505 | 0.632 | 0.233 | 0.0467
